Laboratory results reported in US20260273107A1, “COMPOUND PHARMACEUTICAL PREPARATION CONTAINING OIL COMPONENT COMPRISING POLYOXYETHYLENE STRUCTURE” (CHUGAI SEIYAKU KABUSHIKI KAISHA, priority 2022, published 2026).
In brackets after ≈: the same amount, converted by molar mass. Bridge positions count the residues as written; N and C are the ends. Square brackets hold non-standard residues; d marks the D form. Peptide text beside a SMILES is read from it. * marks the point of attachment. hPhe(3,5-F2-4-CF3) = N[C@@H](CCc1cc(F)c(C(F)(F)F)c(F)c1)C(=O)O; hPhe(3-Cl-4-CF3) = N[C@@H](CCc1ccc(C(F)(F)F)c(Cl)c1)C(=O)O; NMePhe(4-Me) = CN[C@@H](Cc1ccc(C)cc1)C(=O)O; NMeGly(cPent) = CN[C@H](C(=O)O)C1CCCC1; NMeCha = CN[C@@H](CC1CCCCC1)C(=O)O; Hyp = O=C(O)[C@@H]1C[C@@H](O)CN1; NMeI = CC[C@H](C)[C@H](NC)C(=O)O; NMeD = CN[C@@H](CC(=O)O)C(=O)O; NMeL = CN[C@@H](CC(C)C)C(=O)O; NMeA = CN[C@@H](C)C(=O)O; Piperidide = C1CCN(*)CC1; Ac5c = NC1(C(=O)O)CCCC1; Aze = O=C(O)[C@@H]1CCN1; Sar = CNCC(=O)O

Assays:
[1] = Evaluation of Caco-2 membrane permeability; type: in vitro ADME; settings: human, Apical FaSSIF/HBSS pH 6.0 to Basal HBSS 4% BSA pH 7.4, 180 minutes, after 18 to 24 hours preincubation, read-out: Caco2 (Papp)
Experimental: The permeability coefficient (Caco-2 Papp (cm/sec)) is calculated using a numerical expression 1.
[formula] • where dQ/dt is the permeation rate of the drug (amount of drug appearing on the Basal side per unit time), S is the total cell surface area, and C1 (0) is the concentration of drug added on the Apical side.
Caco-2 cells were cultured on 96-well Transwell for 3 weeks, then DMEM, FaSSIF (1% DMSO), and the compound were added to the Apical side, DMEM was added to the Basal side, and the cells were preincubated under 5% CO2 at 37° C. with shaking at 80 rpm for 18 to 24 hours. After the preincubation, the preincubation solutions on the Apical side and Basal side were sucked off and washed, a FaSSIF/HBSS buffer solution (1% DMSO) (pH 6.0) containing the compound was added to the Apical side, a HBSS buffer solution (4% BSA) (pH 7.4) was added to the Basal side, and measurement of membrane permeability was started. Each well was shaken under 5% CO2 at 37° C. and 80 rpm, and at 180 minutes after the start of shaking, a sample on the Basal side was collected, and the permeation amount was measured by LC/MS. From the permeation amount, the membrane permeability coefficient (Papp) was calculated. Note that the description “Caco-2 (cm/sec)” in the column in the table herein is used synonymously with “Papp (cm/sec)”.

[2] = Solubility of cyclic peptide compound in 50 mM phosphate buffer solution (pH 6.5), 37° C. (Example 3-3); type: physicochemical; settings: shaking 22 to 24 hours, read-out: solubility in 50 mM phosphate buffer solution (PPB)
Experimental: Evaluation of the solubility of the cyclic peptide compound was performed. To lyophilized powder of the compound, a 50 mM phosphate buffer solution (PPB: Phosphate buffer, pH 6.5) was added, and after shaking (at 37° C., 1800 rpm, for 22 to 24 hours), the mixed solution was filtered through a filter, and the compound concentration of the filtrate was measured by LC/MS/MS. Solubility was calculated from the measured compound concentration. The solubilities of the compounds 3, 4, 6, 7, and 8 were 11 μg/mL, 1 μg/mL, 1 μg/mL, 15 μg/mL, and 5 μg/mL, respectively.

[3] = Solubility in aqueous solution containing 0.3% or 1% Cremophor EL (Example 3-3); type: physicochemical; settings: 25° C., 22 to 24 hours
Experimental: Evaluation of the solubility of the cyclic peptide compound in the presence of a surfactant was performed. To lyophilized powder of the compound, an aqueous solution containing 0.3% or 1% Cremophor EL (CreEL) was added, and after shaking (at 25° C., 1000 rpm, for 22 to 24 hours), the mixed solution was filtered through a filter, and the compound concentration of the filtrate was measured by LC/UV. Solubility (μg/mL) was calculated from the measured compound concentration.

[4] = 0.3% Cremophor EL aqueous solution, read-out: solubility, 0.3% Cremophor EL
[5] = 1% Cremophor EL aqueous solution, read-out: solubility, 1% Cremophor EL

Row | SMILES | Papp A→B at 180 min [1] [×10⁻⁶ cm/s] | solubility [2] [µg/mL] | solubility [3, 4] [µg/mL] | solubility [3, 5] [µg/mL]
1 | CC[C@H](C)[C@@H]1NC(=O)[C@H](CC(C)C)N(C)C(=O)C[C@@H](C(=O)N2CCCCC2)N(C)C(=O)[C@H](C2CCCC2)N(C)C(=O)C2(CCCC2)NC(=O)[C@@H]2CCCN2C(=O)[C@H](CCc2ccc(C(F)(F)F)c(Cl)c2)NC(=O)CN(C)C(=O)[C@H](CC2CCCCC2)N(C)C(=O)[C@@H]2CCN2C(=O)[C@H](C)N(C)C1=O [Compound 6] ([NMeL]I[NMeA][Aze][NMeCha][Sar][hPhe(3-Cl-4-CF3)]P[Ac5c][NMeGly(cPent)][NMeD]-Piperidide; lactam N-11) | 0.61 | 1 (≈ 0.688 µM) | 434 (≈ 298 µM) | 1450 (≈ 999 µM)
2 | CC[C@H](C)[C@@H]1NC(=O)[C@H](CC(C)C)N(C)C(=O)C[C@@H](C(=O)N(C)C)N(C)C(=O)[C@H]([C@@H](C)CC)N(C)C(=O)C2(CCCC2)NC(=O)[C@@H]2CCCN2C(=O)[C@H](CCc2ccc(C(F)(F)F)c(Cl)c2)NC(=O)CN(C)C(=O)[C@H](Cc2ccc(C)cc2)N(C)C(=O)[C@@H]2CCN2C(=O)[C@H](C)N(C)C1=O [Compound 7] ([NMeL]I[NMeA][Aze][NMePhe(4-Me)][Sar][hPhe(3-Cl-4-CF3)]P[Ac5c][NMeI][NMeD]-NMe2; lactam N-11) | 2.96 | 15 (≈ 10.6 µM) | 492 (≈ 349 µM) | 1640 (≈ 1170 µM)
3 | CCO[C@@H]1C[C@H]2C(=O)NC3(CCCC3)C(=O)N(C)[C@@H](C3CCCC3)C(=O)N(C)[C@H](C(=O)N(C)C)CC(=O)N(C)[C@@H](CC(C)C)C(=O)N[C@@H]([C@@H](C)CC)C(=O)N(C)[C@@H](C)C(=O)N3CC[C@H]3C(=O)N(C)[C@@H](CC3CCCCC3)C(=O)N(C)CC(=O)N[C@@H](CCc3cc(F)c(C(F)(F)F)c(F)c3)C(=O)N2C1 [Compound 8] ([NMeL]I[NMeA][Aze][NMeCha][Sar][hPhe(3,5-F2-4-CF3)][Hyp](Et)[Ac5c][NMeGly(cPent)][NMeD]-NMe2; lactam N-11) | 2.39 | 5 (≈ 3.43 µM) | 356 (≈ 244 µM) | 1340 (≈ 916 µM)

Results, then the compound that gave them:

Row | Papp A→B at 180 min [1] [×10⁻⁶ cm/s] | solubility [2] [µg/mL] | solubility [3, 4] [µg/mL] | solubility [3, 5] [µg/mL] | SMILES
4 | 0.14 |  | 450 (≈ 291 µM) | 1510 (≈ 978 µM) | CC[C@H](C)[C@@H]1NC(=O)[C@H](CC(C)C)N(C)C(=O)C[C@@H](C(=O)N2CCOCC2)N(C)C(=O)[C@H](C2CCCC2)N(C)C(=O)C2(CCCC2)NC(=O)[C@@H]2CCCN2C(=O)[C@H](CCc2ccc(C(F)(F)F)c(Cl)c2)NC(=O)CN(C)C(=O)[C@H](Cc2ccc(C(F)(F)F)cc2)N2CCCCC[C@@H](C2=O)N(C)C(=O)CN(C)C1=O [Compound 9]
5 | 0.7 |  | 583 (≈ 387 µM) | 1680 (≈ 1120 µM) | CCO[C@@H]1C[C@H]2C(=O)NC3(CCC3)C(=O)N(C)[C@@H](C3CCCC3)C(=O)N(C)[C@H](C(=O)N(C)C)CC(=O)N(C)[C@@H](CC)C(=O)N[C@@H]([C@@H](C)CC)C(=O)N(C)CC(=O)N(C)[C@H]3C/C=C\CCN(C3=O)[C@@H](Cc3ccc(C(F)(F)F)cc3)C(=O)N(C)CC(=O)N[C@@H](CCc3cc(F)c(C(F)(F)F)c(F)c3)C(=O)N2C1 [Compound 10]
